Data from article PMC9103105 (2022).

Key:
[1] = system: Mut2 (DNA, aptamer) GATCGGGTGTGGGTGGCGTAAAGGGAGCATCGG; test: fluorescence anisotropy titration; conditions: 100 mM Na+ (acetate), 10 mM MgCl2, 10 mM CaCl2; 20 mM Tris-acetate pH 8.4, room temperature
[2] = system: aptamer 1.12.2 (DNA, aptamer) GATCGGGTGTGGGTGGCGTAAAGGGAGCATCGGACA; test: fluorescence anisotropy titration; conditions: 100 mM Na+ (acetate), 10 mM MgCl2, 10 mM CaCl2; 20 mM Tris-acetate pH 8.4, room temperature
[3] = system: aptamer 1.12.2 (DNA, aptamer) GATCGGGTGTGGGTGGCGTAAAGGGAGCATCGGACA; test: ITC; conditions: 100 mM Na+ (acetate), 10 mM MgCl2, 10 mM CaCl2; 20 mM Tris-acetate pH 8.4, 25 °C; one-site model
[4] = system: aptamer 1.12.2 (DNA, aptamer) GATCGGGTGTGGGTGGCGTAAAGGGAGCATCGGACA; test: fluorescence anisotropy competition; conditions: 100 mM Na+ (acetate), 10 mM MgCl2, 10 mM CaCl2, 20 mM Tris-acetate pH 8.4, 90 nM aptamer
[5] = system: aptamer–ssDNA {6–15} complex (DNA, duplex) GATCGGGTGTGGGTGGCGTAAAGGGAGCATCGGACA/CACCCACACC; test: circular dichroism; conditions: 100 mM Na+ (acetate), 10 mM MgCl2, 10 mM CaCl2; 20 mM Tris-acetate pH 8.4, room temperature; 1 µM complex, up to 10 µM OTA

Row | SMILES | KD [1] [nM] | KD [2] [nM] | KD [3] [nM] | L50 ([4]; tracer 5 nM OTA-Flu displaced) [nM] | KI ([4]; tracer OTA-Flu displaced) [nM] | binding [5]
1 | C[C@@H]1Cc2c(Cl)cc(C(=O)N[C@@H](Cc3ccccc3)C(=O)NCc3c(O)ccc4c3Oc3cc(O)ccc3C43OC(=O)c4ccccc43)c(O)c2C(=O)O1 (stereo partly drawn) | 192 | 183 ± 14 |  |  |  | 
2 | C[C@@H]1Cc2c(Cl)cc(C(=O)N[C@@H](Cc3ccccc3)C(=O)O)c(O)c2C(=O)O1 |  |  | 131 ± 32 | 106.2 ± 6.4 | 36.3 ± 2.1 | no
